Values of other authors in patent US20230414783A1, “Biliary Delivery Methods, Compositions and Kits for Use Therein” (AMBYS MEDICINES, INC., priority 2020, published 2023).

Tested on: lysyl oxidase (LOX) family enzymes
Settings: subcutaneous injection or intravenous infusion; human subjects

**Q.** Which clinical efficacy does the source give for `Cc1cc(F)c(C(=O)Nc2cccc(-c3nncn3C(C)C)n2)cc1-n1cnc(C2CC2)c1` [selonsertib] here?
**A.** The clinical efficacy was “did not demonstrate clinical efficacy”.
